Reference: patent US11279735B2, “Cyclic peptide antibiotics” (priority 2017, dated 2022)
In brackets after ≈: the same amount, converted by molar mass. *1 amine or outer side, *2 acyl side, *3 side chain or, on linkers, in order; H or OH if unused. Where a SMILES comes first, the peptide text is derived from it. [ ]: non-standard residue; d: D form. The star is where a group is joined. X13 = C[C@H](CO[C@H](CC1CC2(CCC2)C1)[C@@H](C)C(=O)[*:2])N[*:1]; X2 = CCCCCC[C@@H](OC[C@@H](C)N[*:1])[C@@H](C)C(=O)[*:2]; X14 = CCCCCC[C@@H](OCCN[*:1])[C@@H](C)C(=O)[*:2]; Gly(cHept) = N[C@H](C(=O)O)C1CCCCCC1; aIle = CC[C@@H](C)[C@H](N)C(=O)O; NMeL = CN[C@@H](CC(C)C)C(=O)O; Chg = N[C@H](C(=O)O)C1CCCCC1; NMeNva = CCC[C@H](NC)C(=O)O; Dap = NC[C@H](N)C(=O)O; X11 = OC[C@H](O)C*; X22 = C1CC(*)CCN1; X10 = NCCCC*

These molecules were tested on Escherichia coli (E. coli) strain CFT073 ATCC 700928. Details: ATCC 700928, 22 h.
Type: cell-based
How it was run: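 Broth microdilution MIC per CLSI M07-A8 in cation-adjusted Mueller Hinton II broth with 0.002% Tween-80. Ten-point 2-fold series topped at 64, 4, 0.5 or 0.13 μg/mL depending on protocol. Final inoculum OD600 0.0005, incubated 22 h at 35 °C.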

Compound | MIC [µM]
CCCCCC[C@H]1OC(=O)CNC(=O)[C@H](COCCCN)NC(=O)[C@H](CN)NC(=O)[C@H](C2CCCCCC2)NC(=O)[C@H](CCC)N(C)C(=O)[C@@H]1C [Example 133, (6S,9S,12S,15S,18R,19R)-9-(aminomethyl)-6-(3-aminopropoxymethyl)-12-cycloheptyl-19-hexyl-16,18-dimethyl-15-propyl-1-oxa-4,7,10,13,16-pentazacyclononadecane-2,5,8,11,14,17-hexone] | 3.1 (≈ 2.24 µg/mL)
CCCCCCCCCC[C@H]1OC(=O)CNC(=O)[C@H](Cc2c[nH]nn2)NC(=O)[C@H](CN)NC(=O)[C@H](C2CCCCC2)NC(=O)[C@H](CC(C)C)N(C)C(=O)[C@@H]1C [Example 56, (6S,9S,12S,15S,18R,19R)-6-((1H-1,2,3-triazol-4-yl)methyl)-9-(aminomethyl)-12-cyclohexyl-19-decyl-15-isobutyl-16,18-dimethyl-1-oxa-4,7,10,13,16-pentaazacyclononadecane-2,5,8,11,14,17-hexaone] | 4.4 (≈ 3.41 µg/mL)
CCCCCC[C@H]1OC[C@@H](C)NC(=O)[C@H](COCCCCN)NC(=O)[C@H](CN)NC(=O)[C@H](C2CCCCC2)NC(=O)[C@H](CC(C)C)N(C)C(=O)[C@@H]1C [Example 73, (3R,6S,9S,12S,15S,18R,19R)-6-((4-Aminobutoxy)methyl)-9-(aminomethyl)-12-cyclohexyl-19-hexyl-15-isobutyl-3,16,18-trimethyl-1-oxa-4,7,10,13,16-pentaazacyclononadecane-5,8,11,14,17-pentaone] (cyclo([Chg][Dap]S(X10)[X2][NMeL])) | 6.3 (≈ 4.65 µg/mL)
CCCCCC[C@H]1OC[C@@H](C)NC(=O)[C@H](COC[C@@H](O)CO)NC(=O)[C@H](CN)NC(=O)[C@H](C2CCCCC2)NC(=O)[C@H](CC(C)C)N(C)C(=O)[C@@H]1C [Example 67, (3R,6S,9S,12S,15S,18R,19R)-9-(Aminomethyl)-12-cyclohexyl-6-(((S)-2,3-dihydroxypropoxy)methyl)-19-hexyl-15-isobutyl-3,16,18-trimethyl-1-oxa-4,7,10,13,16-pentaazacyclononadecane-5,8,11,14,17-pentaone] (cyclo([Chg][Dap]S(X11)[X2][NMeL])) | 8.8 (≈ 6.52 µg/mL)
CCCCCC[C@H]1OC(=O)CNC(=O)[C@H]([C@H](C)O)NC(=O)[C@H]([C@H](C)O)NC(=O)[C@H]([C@H](C)CC)NC(=O)[C@H](CC(C)C)N(C)C(=O)[C@@H]1C [Example 100, (6S,9S,12S,15S,18R,19R)-19-hexyl-15-isobutyl-16,18-dimethyl-6,9-bis[(1S)-1-hydroxyethyl]-12-[(1R)-1-methylpropyl]-1-oxa-4,7,10,13,16-pentazacyclononadecane-2,5,8,11,14,17-hexone] | 35 (≈ 23.4 µg/mL)
CCCCCC[C@H]1OC(=O)CNC(=O)[C@H](CNC(C)=O)NC(=O)[C@H](CN)NC(=O)[C@H](C2CCCCC2)NC(=O)[C@H](CC(C)C)N(C)C(=O)[C@@H]1C [Example 124, N-[[(6S,9S,12S,15S,18R,19R)-9-(aminomethyl)-12-cyclohexyl-19-hexyl-15-isobutyl-16,18-dimethyl-2,5,8,11,14,17-hexaoxo-1-oxa-4,7,10,13,16-pentazacyclononadec-6-yl]methyl]acetamide] | 18 (≈ 12.7 µg/mL)
CCCCCCCCCC[C@H]1OC(=O)CNC(=O)[C@H]([C@H](C)O)NC(=O)[C@H](CO)NC(=O)[C@H]([C@@H](C)CC)NC(=O)[C@H](CCC)N(C)C(=O)[C@@H]1C [Example 32, (6S,9S,12S,15S,18R,19R)-19-decyl-6-[(1S)-1-hydroxyethyl]-9-(hydroxymethyl)-16,18-dimethyl-12-[(1S)-1-methylpropyl]-15-propyl-1-oxa-4,7,10,13,16-pentazacyclononadecane-2,5,8,11,14,17-hexone] | 9.4 (≈ 6.56 µg/mL)
CCCCCC[C@H]1OCCNC(=O)[C@H](CO)NC(=O)[C@H](CN)NC(=O)[C@H]([C@H](C)CC)NC(=O)[C@H](CC(C)C)N(C)C(=O)[C@@H]1C [Example 113, (6S,9S,12S,15S,18R,19R)-9-(aminomethyl)-19-hexyl-6-(hydroxymethyl)-15-isobutyl-16,18-dimethyl-12-[(1R)-1-methylpropyl]-1-oxa-4,7,10,13,16-pentazacyclononadecane-5,8,11,14,17-pentone] (cyclo([Dap]S[X14][NMeL][aIle])) | 50 (≈ 31.3 µg/mL)
CCCCCC[C@H]1OC(=O)CNC(=O)[C@H]([C@H](C)O)NC(=O)[C@H](CN)NC(=O)[C@H](C2CCCCC2)NC(=O)[C@H](CC(C)C)N(C)C(=O)[C@@H]1Cc1ccccc1C [Example 120, (6S,9S,12S,15S,18R,19R)-9-(aminomethyl)-12-cyclohexyl-19-hexyl-15-isobutyl-16-methyl-18-(o-tolylinethyl)-6-[(1S)-1-hydroxyethyl]-1-oxa-4,7,10,13,16-pentazacyclononadecane-2,5,8,11,14,17-hexone] | 3.1 (≈ 2.39 µg/mL)
COC(C)(C)CCCCCC[C@H]1OC(=O)CNC(=O)[C@H]([C@H](C)O)NC(=O)[C@H](CN)NC(=O)[C@H](C2CCCCC2)NC(=O)[C@H](CC(C)C)N(C)C(=O)[C@@H]1C [Example 64, (6S,9S,12S,15S,18R,19R)-9-(Aminomethyl)-12-cyclohexyl-6-((S)-1-hydroxyethyl)-15-isobutyl-19-(7-methoxy-7-methyloctyl)-16,18-dimethyl-1-oxa-4,7,10,13,16-pentaazacyclononadecane-2,5,8,11,14,17-hexaone] | 2.2 (≈ 1.66 µg/mL)
CCCCCC[C@H]1OC(=O)CNC(=O)[C@H](CNC(=O)CN(C)C)NC(=O)[C@H](CN)NC(=O)[C@H](C2CCCCC2)NC(=O)[C@H](CC(C)C)N(C)C(=O)[C@@H]1C [Example 143, 2-(dimethylamino)-N-[[(6S,9S,12S,15S,18R,19R)-9-(aminomethyl)-12-cyclohexyl-19-hexyl-15-isobutyl-16,18-dimethyl-2,5,8,11,14,17-hexaoxo-1-oxa-4,7,10,13,16-pentazacyclononadec-6-yl]methyl]acetamide] | 25 (≈ 18.8 µg/mL)
CCCCCC[C@@H]1OC(=O)CNC(=O)[C@H](CNC(=O)C2CCNCC2)NC(=O)[C@H](CN)NC(=O)[C@H](C2CCCCC2)NC(=O)[C@H](CC(C)C)N(C)C(=O)[C@@H]1C (stereo in doubt) [Example 155] | 18 (≈ 14 µg/mL)
CCC[C@H]1C(=O)N[C@@H](C2CCCCCC2)C(=O)N[C@@H](CN)C(=O)N[C@@H](COC2CCNCC2)C(=O)N[C@H](C)CO[C@H](CC2CC3(CCC3)C2)[C@@H](C)C(=O)N1C [Example 163, (3R,6S,9S,12S,15S,18R,19R)-9-(Aminomethyl)-12-cycloheptyl-3,16,18-trimethyl-6-((piperidin-4-yloxy)methyl)-15-propyl-19-(spiro[3.3]heptan-2-ylmethyl)-1-oxa-4,7,10,13,16-pentaazacyclononadecane-5,8,11,14,17-pentaone] (cyclo([Dap]S(X22)[X13][NMeNva][Gly(cHept)])) | 4.4 (≈ 3.41 µg/mL)
CCCCCCCCCC[C@H]1OC(=O)[C@@H](C)NC(=O)[C@H]([C@H](C)O)NC(=O)[C@H](CO)NC(=O)[C@H]([C@@H](C)CC)NC(=O)[C@H](CC(C)C)N(C)C(=O)[C@@H]1C [Example 4, (3R,6S,9S,12S,15S,18R,19R)-12-((S)-sec-butyl)-19-decyl-6-((S)-1-hydroxyethyl)-9-(hydroxymethyl)-15-isobutyl-3,16,18-trimethyl-1-oxa-4,7,10,13,16-pentaazacyclononadecane-2,5,8,11,14,17-hexaone] | 13 (≈ 9.44 µg/mL)
